Test system: plants
Assay: Test D pre-emergence, other plants of Tables D1 and D3
Assay type: in vivo
Conditions: preemergent, 20 DAA
How it was run: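 Seeds treated with herbicide safener; sown in soil; glasshouse, 16 h light, 65% humidity. Sprayed day 1 (pre) or ~day 12 (post). Spray in 0.2% v/v adjuvant. Scored 0–100 damage: 20 DAA pre, 15 d post.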

CCn1nc([C@H]2CN(C)C(=O)[C@@H]2C(=O)Nc2cccc(F)c2F)c2cc(F)ccc21 [Compound 8]
0: damage to plant (100=total damage to plant; 0=no damage to plant), ABUTH (rate 15) | damage to plant (100=total damage to plant; 0=no damage to plant), ABUTH (rate 30) | damage to plant (100=total damage to plant; 0=no damage to plant), ABUTH (rate 60) | damage to plant (100=total damage to plant; 0=no damage to plant), ABUTH (rate 130) | damage to plant (100=total damage to plant; 0=no damage to plant), ABUTH (rate 250) | damage to plant (100=total damage to plant; 0=no damage to plant), ABUTH (rate 500) | damage to plant (100=total damage to plant; 0=no damage to plant), AMARE (rate 15) | damage to plant (100=total damage to plant; 0=no damage to plant), AMARE (rate 30) | damage to plant (100=total damage to plant; 0=no damage to plant), AMARE (rate 60) | damage to plant (100=total damage to plant; 0=no damage to plant), AMARE (rate 130) | damage to plant (100=total damage to plant; 0=no damage to plant), AMARE (rate 250) | damage to plant (100=total damage to plant; 0=no damage to plant), AMARE (rate 500) | damage to plant (100=total damage to plant; 0=no damage to plant), BIDPI (rate 15) | damage to plant (100=total damage to plant; 0=no damage to plant), BIDPI (rate 30) | damage to plant (100=total damage to plant; 0=no damage to plant), BIDPI (rate 60) | damage to plant (100=total damage to plant; 0=no damage to plant), BIDPI (rate 130) | damage to plant (100=total damage to plant; 0=no damage to plant), BIDPI (rate 250) | damage to plant (100=total damage to plant; 0=no damage to plant), BIDPI (rate 500) | damage to plant (100=total damage to plant; 0=no damage to plant), CYPES (rate 15) | damage to plant (100=total damage to plant; 0=no damage to plant), CYPES (rate 30) | damage to plant (100=total damage to plant; 0=no damage to plant), CYPES (rate 60) | damage to plant (100=total damage to plant; 0=no damage to plant), CYPES (rate 130) | damage to plant (100=total damage to plant; 0=no damage to plant), CYPES (rate 250) | damage to plant (100=total damage to plant; 0=no damage to plant), CYPES (rate 500) | damage to plant (100=total damage to plant; 0=no damage to plant), ELEIN (rate 15) | damage to plant (100=total damage to plant; 0=no damage to plant), ELEIN (rate 30) | damage to plant (100=total damage to plant; 0=no damage to plant), ELEIN (rate 60) | damage to plant (100=total damage to plant; 0=no damage to plant), ELEIN (rate 130) | damage to plant (100=total damage to plant; 0=no damage to plant), ELEIN (rate 250) | damage to plant (100=total damage to plant; 0=no damage to plant), ELEIN (rate 500) | damage to plant (100=total damage to plant; 0=no damage to plant), EPHHL (rate 15) | damage to plant (100=total damage to plant; 0=no damage to plant), EPHHL (rate 30) | damage to plant (100=total damage to plant; 0=no damage to plant), EPHHL (rate 60) | damage to plant (100=total damage to plant; 0=no damage to plant), EPHHL (rate 130) | damage to plant (100=total damage to plant; 0=no damage to plant), EPHHL (rate 250) | damage to plant (100=total damage to plant; 0=no damage to plant), GLXMA (rate 15) | damage to plant (100=total damage to plant; 0=no damage to plant), GLXMA (rate 30) | damage to plant (100=total damage to plant; 0=no damage to plant), GLXMA (rate 60) | damage to plant (100=total damage to plant; 0=no damage to plant), GLXMA (rate 130) | damage to plant (100=total damage to plant; 0=no damage to plant), GLXMA (rate 250) | damage to plant (100=total damage to plant; 0=no damage to plant), GLXMA (rate 500) | damage to plant (100=total damage to plant; 0=no damage to plant), IPOHE (rate 15) | damage to plant (100=total damage to plant; 0=no damage to plant), IPOHE (rate 30) | damage to plant (100=total damage to plant; 0=no damage to plant), IPOHE (rate 60) | damage to plant (100=total damage to plant; 0=no damage to plant), IPOHE (rate 130) | damage to plant (100=total damage to plant; 0=no damage to plant), IPOHE (rate 250) | damage to plant (100=total damage to plant; 0=no damage to plant), IPOHE (rate 500) | damage to plant (100=total damage to plant; 0=no damage to plant), ORYSA (rate 15) | damage to plant (100=total damage to plant; 0=no damage to plant), ORYSA (rate 30) | damage to plant (100=total damage to plant; 0=no damage to plant), ORYSA (rate 60) | damage to plant (100=total damage to plant; 0=no damage to plant), ORYSA (rate 130) | damage to plant (100=total damage to plant; 0=no damage to plant), ORYSA (rate 250) | damage to plant (100=total damage to plant; 0=no damage to plant), ORYSA (rate 500) | damage to plant (100=total damage to plant; 0=no damage to plant), PANMI (rate 15) | damage to plant (100=total damage to plant; 0=no damage to plant), PANMI (rate 30) | damage to plant (100=total damage to plant; 0=no damage to plant), PANMI (rate 60) | damage to plant (100=total damage to plant; 0=no damage to plant), PANMI (rate 130) | damage to plant (100=total damage to plant; 0=no damage to plant), PANMI (rate 250) | damage to plant (100=total damage to plant; 0=no damage to plant), SIDSP (rate 15) | damage to plant (100=total damage to plant; 0=no damage to plant), SIDSP (rate 30) | damage to plant (100=total damage to plant; 0=no damage to plant), SIDSP (rate 60) | damage to plant (100=total damage to plant; 0=no damage to plant), SIDSP (rate 130) | damage to plant (100=total damage to plant; 0=no damage to plant), SIDSP (rate 250) | damage to plant (100=total damage to plant; 0=no damage to plant), SIDSP (rate 500) | damage to plant (100=total damage to plant; 0=no damage to plant), SORVU (rate 15)
100: damage to plant (100=total damage to plant; 0=no damage to plant), BRAPL (rate 500) | damage to plant (100=total damage to plant; 0=no damage to plant), DIGSA (rate 60) | damage to plant (100=total damage to plant; 0=no damage to plant), DIGSA (rate 130) | damage to plant (100=total damage to plant; 0=no damage to plant), DIGSA (rate 250) | damage to plant (100=total damage to plant; 0=no damage to plant), DIGSA (rate 500) | damage to plant (100=total damage to plant; 0=no damage to plant), ECHCG (rate 500) | damage to plant (100=total damage to plant; 0=no damage to plant), SETFA (rate 250) | damage to plant (100=total damage to plant; 0=no damage to plant), SETFA (rate 500)
10: damage to plant (100=total damage to plant; 0=no damage to plant), DIGSA (rate 15) | damage to plant (100=total damage to plant; 0=no damage to plant), SETFA (rate 15) | damage to plant (100=total damage to plant; 0=no damage to plant), SORVU (rate 130)
70: damage to plant (100=total damage to plant; 0=no damage to plant), BRAPL (rate 30) | damage to plant (100=total damage to plant; 0=no damage to plant), BRAPL (rate 60) | damage to plant (100=total damage to plant; 0=no damage to plant), EPHHL (rate 500) | damage to plant (100=total damage to plant; 0=no damage to plant), SETFA (rate 60)
90: damage to plant (100=total damage to plant; 0=no damage to plant), BRAPL (rate 250) | damage to plant (100=total damage to plant; 0=no damage to plant), DIGSA (rate 30) | damage to plant (100=total damage to plant; 0=no damage to plant), ECHCG (rate 30) | damage to plant (100=total damage to plant; 0=no damage to plant), ECHCG (rate 60) | damage to plant (100=total damage to plant; 0=no damage to plant), ECHCG (rate 130) | damage to plant (100=total damage to plant; 0=no damage to plant), ECHCG (rate 250) | damage to plant (100=total damage to plant; 0=no damage to plant), SETFA (rate 130)
30: damage to plant (100=total damage to plant; 0=no damage to plant), ECHCG (rate 15) | damage to plant (100=total damage to plant; 0=no damage to plant), PANMI (rate 500)
80: damage to plant (100=total damage to plant; 0=no damage to plant), BRAPL (rate 130) | damage to plant (100=total damage to plant; 0=no damage to plant), SETFA (rate 30)
20: damage to plant (100=total damage to plant; 0=no damage to plant), BRAPL (rate 15)

From patent US20220281848A1, “PYRAZOLE-SUBSTITUTED PYRROLIDINONES AS HERBICIDES” (FMC Corporation, priority 2019, published 2022)
